From patent US8889130B2, “Treatment of osteoarthritis and pain” (Abbvie Inc., priority 2011, dated 2014)

Experiments:
[1] = tested on: mice (male CD1); assay: L5/L6 spinal nerve ligation (SNL) model of neuropathic pain, mechanical allodynia; type: in vivo; details: mAbs 900 μg/mouse each, gabapentin 100 mg/kg, 1 hour pretreatment
Experimental: Whether an anti-IL-1α and anti-IL-1β mAb combination therapy would produce efficacy in neuropathic pain conditions was examined in an L5/L6 spinal nerve ligation (SNL) model in mice (male CD1). Testing was performed six days after SNL surgery, 24 and 72 hours after animals were treated with mAb combination (900 μg/mouse of each mAb). […] The magnitude of efficacy (% MPE) was 72.20±14.39% at 24 hours and 80.62±12.33% at 72 hours (FIG. 19).

[2] = tested on: female BALB/c mice; assay: CFA (Complete Freund's Adjuvant) inflammatory pain model, mechanical allodynia (von Frey); type: in vivo, mouse; details: 48 hours after CFA, diclofenac 30 mg/kg
Experimental: The CFA (Complete Freund's Adjuvant) inflammatory pain model was used to test whether the anti-IL-1α and anti-IL-1β mAb combination would produce efficacy against a mechanical endpoint. Therefore, mechanical allodynia was assessed using von Frey monofilaments in animals (female BALB/c mice) 48 hours after they were injected intraplantar with CFA. […] Separate groups of animals were treated either with IgG isotype control or a combination of anti-IL-1α and anti-IL-1β mAbs (900 μg/mouse of each mAb) 30 hours after CFA injection. […] The magnitude of efficacy (% MPE) was 65.51±12.35% (FIG. 17B).

[3] = tested on: mice (female BALB/c); assay: Mouse carrageenan-induced inflammatory pain model, thermal hyperalgesia (paw withdrawal latency); type: in vivo; details: for thermal hyperalgesia / antinociceptive effect: Example 8, 48 and 96 hours, single mAb 900 μg, diclofenac 30 mg/kg; for paw withdrawal latency, carrageenan (injured) paw: mAbs 900 μg each at 30 hours, diclofenac 30 mg/kg p.o. 60 minutes before testing
Experimental: To evaluate whether neutralization of IL-1α and IL-1β produces antinociceptive effects in inflammatory pain conditions, anti-IL-1α and anti-IL-1β mAbs were evaluated for the ability to reverse established pain in the mouse carrageenan paw model of nociceptive pain.
The efficacy of the anti-IL-1α and anti-IL-1β mAbs was evaluated when administered alone or in combination in the mouse carrageenan model (FIG. 15). At 30 hours after intraplantar carrageenan injection: 900 μg of either anti-IL-1α mAb, anti-IL-1β mAb, or their combination were administered in different groups of mice. Thermal hyperalgesia testing was performed 48 and 96 hours after carrageenan. […] The antinociceptive effect in 900 μg combination group was 53±7% at 48 hours, and 82±11% at 96 hours.
Different groups of animals were treated either with vehicle or a combination of anti-IL-1α and anti-IL-1β mAbs (100, 300, or 900 μg/mouse of each mAb) 30 hours after carrageenan injection. […] The antinociceptive effect in 900 μg treatment group was 70±9% at 48 hours, and 62±4% at 96 hours. Diclofenac (30 mg/kg), a non-steroidal, anti-inflammatory analgesic, was included as positive control in the study, and it increased the mean paw withdrawal latency of the injured paw to 7.01±0.58 s at 48 hours and 7.48±0.34 s at 96 hours when administered p.o. 60 minutes before testing (p<0.01 at both time points).

[4] = tested on: human OA patients; details: literature (Cohen et al., ACR 2007); cited from earlier work
[5] = tested on: Male SV129 mice; assay: Destabilization of medial meniscus (DMM) model of osteoarthritis, cartilage degeneration (Chambers scores); type: in vivo, mouse; details: Example 3.3.6 (FIG. 7); 8 weeks; mAbs 6 mg/kg alone or in combination
Description: (§1) Male SV129 mice weighing approximately 30 grams, housed 5/cage, were anesthetized on Day 0 with ketamine/xylazine cocktail, administered intraperitoneally (ip), and then the medial collateral ligament was exposed by blunt dissection, and transected to reflect the meniscus toward the femur. The joint space was closed with 8-0 vicryl suture. The skin was closed with wound glue. For sham surgeries, a vertical skin incision was made over the medial aspect of the knee and the joint capsule was opened. The capsule was closed with 8-0 vicryl suture and the skin was closed with wound glue. Groups of animals were then treated with intraperitoneal (ip) injections of antibody or vehicle according to the study design table below. Two sex-matched, age-matched, and strain-matched naïve mice were also included in the study. Animals were euthanized after 8 weeks of treatment, and knee joints were harvested in 10% neutral buffered formalin.
Formalin-fixed samples were decalcified, and specimens were sectioned in the frontal plane into 15 step sections each. Each section was approximately 6 μm thick, and step sections were separated by 70 μm. All slides were stained with toluidine blue (T. Blue). Slides were assessed according to the Chambers method (Chambers et al. (2001) Arthritis Rheum 44:1455-65) for cartilage degeneration (see below) by a board-certified veterinary pathologist. Each of the four cartilage surfaces, the medial femoral condyle (MFC), the medial tibial plateau (MTP), the lateral femoral condyle (LFC), and the lateral tibial plateau (LTP), was scored from 0-6 according to the scale in the table below.
as §1, with “8-0 vicryl suture, and the” for “8-0 vicryl suture and the”, “injections of anti-mIL-1α monoclonal antibody, anti-mIL-1β (alone or in combination), mIL-1α/βDVD-Ig binding protein, or vehicle” for “injections of antibody or vehicle”, “design table below (Table 24). Animals were” for “design table below. Two sex-matched, age-matched, and strain-matched naïve mice were also included in the study. Animals were”, “weeks of treatment and knee” for “weeks of treatment, and knee”
Male SV129 mice weighing approximately 30 grams had the medial collateral ligament exposed by blunt dissection, and transected to reflect the meniscus toward the femur. The joint space was closed with 8-0 vicryl suture. The skin was closed with wound glue. For sham surgeries, a vertical skin incision was made over the medial aspect of the knee and the joint capsule was opened. The capsule was closed with 8-0 vicryl suture, and the skin was closed with wound glue. Groups of animals were then treated per os (po) or via intraperitoneal (ip) injections of vehicle or treatments according to the study design table below. Three sex-matched, age-matched, and strain-matched naïve mice were also included in the study. Animals were euthanized after 4 weeks of treatment, and knee joints were harvested in 10% neutral buffered formalin.

[6] = tested on: DMM mice; assay: DMM model of osteoarthritis, mechanical allodynia (paw withdrawal threshold); type: in vivo, mouse; details: Example 5 (FIG. 12); 6 mg/kg ip twice per week for four weeks; day 28
Experimental: The DMM model also generates measurable pain in the mice. […] The efficacy of anti-IL-1α/β therapy was studied in the DMM animal model.
The potential of anti-IL-1 therapy to ameliorate pain was tested in the DMM mouse model of OA in terms of mechanical allodynia. Dosing of the combination of IL-1α and IL-1β mAbs was initiated on the day of the surgery and was repeated twice a week for 5 weeks. Animals were treated with PBS vehicle alone, with an IgG isotype control, or with a combination of anti-IL-1α and anti-IL-1β mAbs (at a dose of 6 mg/kg for each mAb). Animals were tested weekly for paw withdrawal threshold. […] This reduction in pain was seen as early as week 1 following treatment (data not shown).
To evaluate the effect of IL-1 therapy in established pain, animals in the IgG control group with established OA and mechanical allodynia were treated on day 35 with the combination of anti-IL-1α and anti-IL-1β monoclonal antibodies and the paw withdrawal threshold was tested 24 hours later (day 36).
The potential of anti-IL-1 therapy to ameliorate pain in the DMM mouse model of OA (see, above) in terms of mechanical allodynia was further evaluated. Dosing of the combination of IL-1α and IL-1β mAbs was initiated on the day of the surgery and was repeated twice a week for 4 weeks. […]

[7] = tested on: male DBA-1 mice; assay: Collagen-induced arthritis mouse model (rheumatoid arthritis); type: in vivo; details: therapeutic mode; 1-3 mg/kg intraperitoneally every other day after disease onset
Experimental: The therapeutic effects of anti-IL-1α, anti-IL-1β, combined anti-IL-1α/anti-IL-1β, and murine IL-1α/β DVD4-Ig, were evaluated in a collagen-induced arthritis mouse model well known in the art. Briefly, male DBA-1 mice were immunized with bovine type II collagen in CFA at the base of the tail. The mice were boosted with Zymosan intraperitoneally (i.p) at day 21. After disease onset at day 24-27, mice were selected and divided into separate groups of 10 mice each. […] To neutralize IL-1, mice were injected every other day with 1-3 mg/kg of anti-IL-1α mAb, anti-IL-1βmAb, combination of anti-IL-1α and anti-IL-1β mAbs, or murine IL-1α/β DVD4-Ig intraperitoneally. Mice were carefully examined three times a week for the visual appearance of arthritis in peripheral joints, and scores for disease activity determined.

Molecule: NCC1(CC(=O)O)CCCCC1 [gabapentin]
- paw withdrawal threshold (von Frey) ([1]; at 24 hours): 0.858 ± 0.077 g
- paw withdrawal threshold (von Frey) ([1]; at 72 hours): 1.138 ± 0.096 g

Molecule: O=C(O)Cc1ccccc1Nc1c(Cl)cccc1Cl [Diclofenac]
- paw withdrawal threshold, CFA injected paw ([2]; mAbs 900 μg/mouse each 30 hours after CFA, 1 hour pretreatment): 0.359 ± 0.088 g
- magnitude of efficacy (% MPE) ([2]; mAbs 900 μg/mouse each): 64.51±10.20%
- thermal hyperalgesia / antinociceptive effect [3]: significant attenuation of thermal hyperalgesia
- paw withdrawal latency, carrageenan (injured) paw ([3]; Example 9 (FIG. 16A), at 48 hours): 7.01 ± 0.58 s
- paw withdrawal latency, carrageenan (injured) paw ([3]; Example 9 (FIG. 16B), at 96 hours): 7.48 ± 0.34 s

Molecule: Anakinra: IL-1 receptor antagonist
- efficacy in OA trials with respect to symptoms and chondroprotection [4]: some efficacy

B1: 9H10: mouse anti-mouse IL-1α monoclonal antibody (clone 9H10) from IL-1α/β double KO mice (antibody, V domains shown)
VH: QVILKESGPGILQPSQTLSLTCSFSGFSLSTYGTAVNWIRQPSGKGLEWLAQIGSDDRKLYNPFLKSRITLSEDTSNSQVFLKITSVDTEDSATYYCANGVMEYWGLGTSVTVSS
VL: SIVMTQTPKFLLVSAGDRVTITCKASQSVNHDVAWYQQMPGQSPKLLIYFASNRYTGVPDRFTGSGYGTDFTFTISTVQAEDLAVYFCQQDYSSPYTFGGGTKLEIKR
modifications: heavy chain variable domain of 9H10; light chain variable domain of 9H10
notes: mouse anti-mouse IL-1α monoclonal antibody (clone 9H10) from IL-1α/β double KO mice
- mean sum Chambers scores and mean maximum Chambers scores (cartilage degeneration) [5]: not statistically significant
- paw withdrawal threshold (allodynia) [6]: allodynic (painful)
- thermal hyperalgesia / antinociceptive effect [3]: no significant antinociceptive effect
- reduction in mean arthritis score compared to control group [7]: 10%
